Assays:
Format in all cases: biochemical
[1] = Hydrogen peroxide generation by enzymes on substrates; conditions: for μg of H2O2 produced/ml: one unit enzyme, pH 6.3, 37° C., 12 h
Procedure: Seven enzymes, including glucose oxidase, glycerol-3-phosphate oxidase, xanthine oxidase, cholesterol oxidase, galactose oxidase, alcohol oxidase and pyruvate oxidase, were tested for hydrogen peroxide generation on five substrates, including tampon material (e.g., cellulosic materials, including, but not limited to, cotton and rayon fibers), polydextran, carboxymethylcellulose, chitosan, and poly (vinyl alcohol).
One unit of each enzyme was combined with 0.05 ml of a saturated solution (in distilled, deionized water) of each substrate in a test tube and diluted to 0.5 ml with buffer (0.5 M Tris buffer, pH adjusted to 6.3). In the case of insoluble substrates, a piece (approximately 0.25 g) of the substrate was placed in the test tube. The tubes were placed in an oscillating incubator at 37° C. After 12 h, the tubes were removed and the solution was assayed for H2O2 level by an established method (Graf, E. and Penniston, J. T., “Method for Determination of Hydrogen Peroxide, With Its Application Illustrated by Glucose Assay,” Clinical Chemistry, 26, 658-660 (1980)). The results are depicted in Table 2 in μg H2O2 per ml. (For production of hydrogen peroxide over time, see FIG. 1.)

[2] = Self-limiting features of peroxide generation, alcohol oxidase-carboxymethylcellulose; conditions: carboxymethylcellulose substrate, 37° C.
Procedure: FIG. 4 is a graphical representation of the effect of pH on hydrogen peroxide production. Depicted is hydrogen peroxide production resulting from alcohol oxidase activity with carboxymethylcellulose as a function of pH (with no initial peroxide added, after agitation for 8 hours at 37° C. in normal atmosphere).
FIG. 5 is a graphical representation of the effect of initial hydrogen peroxide (H2O2) on H2O2 production. Depicted is hydrogen peroxide production resulting from alcohol oxidase activity with carboxymethylcellulose as a function of initial hydrogen peroxide added (at pH 6.3, after agitation for 8 hours at 37° C. in normal atmosphere).
One of the enzyme-substrate combinations, alcohol oxidase-carboxymethylcellulose, was further studied. One unit of enzyme was combined with 0.05 ml of 2.5% carboxymethyl cellulose in a test tube and diluted to 0.5 ml with buffer of appropriate pH. The tubes were placed in an oscillating incubator at 37° C. After 8 hours, the tubes were removed and the solution was assayed for H2O2 level.

[3] = H2O2 production by alcohol oxidase on modified pva/polycap polymer versus unmodified poly (vinyl alcohol); conditions: direct comparison (data not shown)
[4] = substrate Tampon Material (cotton)

| Substance | μg of H2O2 produced/ml ([1]; substrate CM Cellulose) [μg H2O2 per ml] | μg of H2O2 produced/ml ([1]; substrate Chitosan) [μg H2O2 per ml] | μg of H2O2 produced/ml ([1]; substrate Poly(vinyl alcohol)) [μg H2O2 per ml] | μg of H2O2 produced/ml ([1]; substrate Polydextran) [μg H2O2 per ml] | μg of H2O2 produced/ml [1, 4] [μg H2O2 per ml] | level of H2O2 production compared with the other enzymes ([1]; across the five substrates of Table 2) | enzyme activity as a function of pH ([2]; 8 hours, FIG. 4) | hydrogen peroxide production at pH 6.3 ([2]; pH 6.3, 8 hours) | effect of initial hydrogen peroxide on enzyme activity ([2]; pH 6.3, 8 hours, FIG. 5) | more H2O2 produced on modified pva/polycap polymer than on unmodified poly (vinyl alcohol) [3] [%] |
| --- | --- | --- | --- | --- | --- | --- | --- | --- | --- | --- |
| galactose oxidase | 4.43 | 8.06 | 4.34 | 3.89 | 6.45 |  |  |  |  |  |
| pyruvate oxidase | 9.84 | 11.94 | 3.85 | 9.75 | 6.66 |  |  |  |  |  |
| cholesterol oxidase | 4.01 | 14.09 | 5.13 | 3.89 | 4.92 |  |  |  |  |  |
| glycerol-3-phosphate oxidase | 3.97 | 9.01 | 3.85 | 4.01 | 4.84 |  |  |  |  |  |
| alcohol oxidase | 103.96 | 9.38 | 53.20 | 92.89 | 97.84 | highest level of H2O2 production on most of the substrates | decreased with decreasing pH | high levels of hydrogen peroxide | deactivated in the presence of high concentrations of hydrogen peroxide | 22 |
| xanthine oxidase | 6.08 | 10.00 | 6.00 | 5.96 | 10.46 |  |  |  |  |  |
| glucose oxidase | 3.31 | 10.66 | 4.47 | 54.69 | 4.43 |  |  |  |  |  |

From patent US20040126369A1, “Delivery of peroxide-generating enzymes to the vaginal tract” (priority 2002, published 2004)
